Assay results reported in patent US11000033B2, “Ketone or oxime compound, and herbicide” (NISSAN CHEMICAL CORPORATION, priority 2014, dated 2021).

Tests used:
Assay type in all cases: in vivo
[1] = tested on: Echinochloa oryzacola Vasing.; assay: Test Example 2: herbicidal activity, application during weed generation in submerged conditions (symbol A); details: Table 23; application herbicide amount 320 g/ha; grade 0-5 by criteria of Test Example 1
Procedure, shortened: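 Steps: fill pots with alluvial soil; add water to 4 cm depth; co-sow the three weeds; grow at 25° C. to 30° C. under glass; at 1–2 leaves, dose the floodwater with diluted emulsion; rate damage visually after 3 weeks.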

Lolium multiflorum Lam. = assay: Test Example 4: herbicidal effect by soil treatment (symbol K); details: 320 g/ha
Procedure, shortened: (§1)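 Seeds were sown in sterilized diluvial soil, covered with about 1.5 cm of soil, and the soil surface was sprayed with a water-diluted emulsion of the compound at a predetermined rate. Plants grew in a greenhouse at 25° C. to 30° C.; effects were scored visually 3 weeks after application.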

Digitaria ciliaris = assay: Test Example 4: herbicidal effect by soil treatment (symbol F); details: 320 g/ha
Procedure, shortened: as §1

[2] = tested on: directly sowed rice plant; assay: Test Example 3: effect on crop by foliage application, Wagner pot (symbol b); details: application herbicide amount 320 g/ha
Procedure, shortened: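 Plants are raised from seed in flooded paddy conditions: water stands 0.1–0.5 cm over alluvial soil, and the pot is kept in a greenhouse at 25–30 °C. Species sown are barnyardgrass (E. crus-galli var. crus-galli), Leptochloa chinensis, Cyperus difformis and rice.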

soybean = assay: Test Example 5: effect on crop by foliage application, plastic box (symbol d); details: 320 g/ha, 3 weeks after application
Procedure, shortened: (§2)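 Box culture: sterile diluvial soil, seeds spot-sown, ~1.5 cm cover, raised under glass at 25–30° C.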

corn = assay: Test Example 5: effect on crop by foliage application, plastic box (symbol c); details: 320 g/ha, 3 weeks after application
Procedure, shortened: as §2

transplanted rice plant = assay: Test Example 1: effect on crop, application before weed generation in submerged conditions (symbol a); details: application herbicide amount 320 g/ha
Procedure, shortened: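 Alluvial soil pots flooded to 4 cm water, sown with Echinochloa oryzacola, Scirpus juncoides and Monochoria vaginalis, then transplanted with 2.5 leaf stage rice seedlings; pre-emergence application. Greenhouse 25° C. to 30° C.; scored 0–5 by herbicidal ratio 3 weeks after application.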

Leptochloa chinensis = assay: Test Example 3: herbicidal effect by foliage application, Wagner pot (symbol D); details: application herbicide amount 320 g/ha
Procedure, shortened: (§3)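 Post-emergence, paddy-type test: seedlings 14 d old in shallow-flooded (0.1–0.5 cm) alluvial soil, 25–30 °C greenhouse. Emulsion diluted to target rate, sprayed on leaves. Read-out: visual effect on each species at 3 weeks, per set criteria.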

beet = assay: Test Example 4: effect on crop by soil treatment (symbol f); details: 320 g/ha
Procedure, shortened: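 Seeds were sown in spots on sterilized diluvial soil in a plastic box and covered with about 1.5 cm of soil. Plants were then grown in a greenhouse at 25° C. to 30° C.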

[3] = tested on: Echinochloa crus-galli var. crus-galli; assay: Test Example 3: herbicidal effect by foliage application, Wagner pot (symbol H); details: application herbicide amount 320 g/ha
Procedure, shortened: as §3

Monochoria vaginalis = assay: Test Example 1: herbicidal activity, application before weed generation in submerged conditions (symbol C); details: application herbicide amount 320 g/ha
Procedure, shortened: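 Compound emulsion was diluted to a set herbicide amount and applied to the water surface on the sowing day, into submerged (4 cm) alluvial-soil pots sown with mixed weed seeds and transplanted 2.5-leaf rice. Pots were held in a 25–30 °C greenhouse, and weeds were scored 0–5 by herbicidal ratio after 3 weeks.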

Chenopodium album = assay: Test Example 4: herbicidal effect by soil treatment (symbol O); details: 320 g/ha
Procedure, shortened: as §1

Row | SMILES | Herbicidal effect grade, A: Echinochloa oryzacola Vasing. [1] | K: Lolium multiflorum Lam., herbicidal effect grade (Lolium multiflorum Lam.) | F: Digitaria ciliaris, herbicidal effect grade (Digitaria ciliaris) | effect on crop b (directly sowed rice plant), grade 0-5 [2] | d: soybean, effect on crop (criteria 0-5) (soybean) | c: corn, effect on crop (criteria 0-5) (corn) | Effect grade on crop, a: transplanted rice plant (transplanted rice plant) | herbicidal effect on D (Leptochloa chinensis), grade 0-5 (Leptochloa chinensis) | f: beet, effect grade on crop (beet) | herbicidal effect on H (Echinochloa crus-galli var. crus-galli), grade 0-5 [3] | Herbicidal effect grade, C: Monochoria vaginalis (Monochoria vaginalis) | O: Chenopodium album, herbicidal effect grade (Chenopodium album)
1 | CON=C(CC1CC(O)=C(c2c(C)cc(C)cc2C)C1=O)c1ccc(F)cc1 (stereo not drawn) [1-133] | 1 (Herbicidal ratio of 5% or higher and lower than 20%) | 3 (Herbicidal ratio of 40% or higher and lower than 70%) | 4 (Herbicidal ratio of 70% or higher and lower than 90%) | 0 (Herbicidal ratio of 5% or lower (almost no effect)) | 3 (Herbicidal ratio of 40% or higher and lower than 70%) | 0 (Herbicidal ratio of 5% or lower (almost no effect)) | 1 (Herbicidal ratio of 5% or higher and lower than 20%) | 0 (Herbicidal ratio of 5% or lower (almost no effect)) | 0 (Herbicidal ratio of 5% or lower (almost no effect)) | 3 (Herbicidal ratio of 40% or higher and lower than 70%) | 0 (Herbicidal ratio of 5% or lower (almost no effect)) | 0 (Herbicidal ratio of 5% or lower (almost no effect))
2 | CC(CC1CC(O)=C(c2c(C)cc(C)cc2C)C1=O)=NOCC1OCCO1 (stereo not drawn) [1-111] | 5 (Herbicidal ratio of 90% or more (almost completely withered)) | 5 (Herbicidal ratio of 90% or more (almost completely withered)) | 5 (Herbicidal ratio of 90% or more (almost completely withered)) | 5 (Herbicidal ratio of 90% or more (almost completely withered)) | 3 (Herbicidal ratio of 40% or higher and lower than 70%) | 5 (Herbicidal ratio of 90% or more (almost completely withered)) | 5 (Herbicidal ratio of 90% or more (almost completely withered)) | 5 (Herbicidal ratio of 90% or more (almost completely withered)) | 0 (Herbicidal ratio of 5% or lower (almost no effect)) | 5 (Herbicidal ratio of 90% or more (almost completely withered)) | 1 (Herbicidal ratio of 5% or higher and lower than 20%) | 0 (Herbicidal ratio of 5% or lower (almost no effect))
3 | CC(CC1CC(O)=C(c2c(C)cc(C)cc2C)C1=O)=NOCCS(C)(=O)=O (stereo not drawn) [1-110] | 2 (Herbicidal ratio of 20% or higher and lower than 40%) | 5 (Herbicidal ratio of 90% or more (almost completely withered)) | 5 (Herbicidal ratio of 90% or more (almost completely withered)) | 5 (Herbicidal ratio of 90% or more (almost completely withered)) | 0 (Herbicidal ratio of 5% or lower (almost no effect)) | 5 (Herbicidal ratio of 90% or more (almost completely withered)) | 5 (Herbicidal ratio of 90% or more (almost completely withered)) | 5 (Herbicidal ratio of 90% or more (almost completely withered)) | 0 (Herbicidal ratio of 5% or lower (almost no effect)) | 5 (Herbicidal ratio of 90% or more (almost completely withered)) | 0 (Herbicidal ratio of 5% or lower (almost no effect)) | 0 (Herbicidal ratio of 5% or lower (almost no effect))
